Reference: patent US4288596A, “Furoindoles” (priority 1978, dated 1981)
Counter-ions that a name gives are not always drawn.

Tests used:
[1] = Analgesic effect by D'Amour-Smith's method; format: in vivo, mice of ddY strain; conditions: Mus musculus; oral, mice; reaction time at 30, 60, 90 and 120 min; read-out: Analgesic action (ED50), D'Amour-Smith's method
Description: Test 3: ANALGESIC EFFECT BY D'AMOUR-[…] METHOD (D'Amour et al., J. Pharmacol. Exp. Ther., 72, 74 (1941)) Ten mice of ddY strain weighing 18-24 g and showing reaction times of 2-5 seconds were used in testing each compound. The reaction time was measured at 30, 60, 90 and 120 minutes after oral administration of the test compounds and positive analgesic response was recorded when the reaction time was two or more times longer than pre-administration. ED50 values were calculated from the number of positive mice.

[2] = Analgesic effect by tail pressure method; format: in vivo, mice of ddY strain; conditions: Mus musculus; oral, mice; pain threshold at 30, 60, 90 and 120 min; read-out: Analgesic action (ED50), Tail pressure method
Description: Test 2: ANALGESIC EFFECT BY TAIL PRESSURE METHOD (Keijiro Takagi et al., Yakugaku Zasshi, 78, 553 ([…])) Ten mice of ddY strain weighing 18-24 g and showing pain threshold of 50-80 mmHg were used in testing each compound. The pain threshold was measured at 30, 60, 90 and 120 minutes after oral administration of the test compounds and positive analgesic response was recorded when the pain threshold was two or more times higher than pre-administration. ED50 values were calculated from the numbers of positive mice.

[3] = Analgesic effect by acetic acid writhing method; format: in vivo, mice of ddY strain; conditions: Mus musculus, 20 min; oral, mice; 0.7% acetic acid i.p. 20 min after dosing; read-out: Analgesic action (ED50), Writhing method
Description: Test 1: ANALGESIC EFFECT BY ACETIC ACID WRITHING METHOD (Koster et al., Fed Proc., 18, 412 (1959))
Ten mice of ddY strain weighing 18-24 g were used in testing each compound. Twenty minutes after oral administration of test compounds, 0.1 ml/10 g of 0.7% acetic acid solution was injected intraperitoneally and the number of writhing syndromes was recorded for 10 minutes from 10 minutes after acetic acid injection. ED50 values were calculated from inhibition percent for each test compound.

[4] = Anti-inflammatory effect by carrageenin edema method; format: in vivo, male rats of Wistar strain; conditions: rats; for Ratio of antiedematous action (100 mg/kg test compound/100 mg/kg phenylbutazone): ratio of inhibition % at 100 mg/kg oral, values marked * in the anti-inflammatory column; for ED50: Rattus norvegicus, oral, carrageenin edema, foot volume at 3 hours, read-out: Anti-inflammatory action (ED50)
Description: Test 4: ANTI-INFLAMMATORY EFFECT BY CARRAGEENIN EDEMA METHOD (Winter et al., Proc. Soc. Exp. Biol. Med., 111, 544 (1962)) Six male rats of Wistar strain weighing 110-120 g were used in testing each compound. […] ED50 values were calculated from the inhibition percent of foot volume, and the ratios of anti-edematous action of test compounds were calculated by the formula; (the inhibition % of 100 mg/kg test compounds)/(the inhibition % of 100 mg/kg phenylbutazone).

in vivo = experiment: in vivo; design: species or system male rats of Wistar strain; conditions: rat, po
Description: Test 5: ULCERATION IN STOMACH (Brodie et al., Gastroenterology, 56, 206 (1969))
Ten male rats of Wistar strain weighing 190-200 g were used for each dose. Rats were deprived of food for 24 hours before experiments. Test compounds were administered orally and 18 hours later the rats were sacrificed, thereafter the area of each gastric lesion was measured and summed under dissecting microscope (×9). UD50 values were calculated from the gastric lesion area.

| SMILES | ED50 [1] [mg/kg] | ED50 [2] [mg/kg] | ED50 [3] [mg/kg] | Ratio of antiedematous action (100 mg/kg test compound/100 mg/kg phenylbutazone) [4] | TD50 at 18 h (in vivo) [mg/kg] | ED50 [4] [mg/kg] |
| --- | --- | --- | --- | --- | --- | --- |
| Cc1c(N(C)C)c(=O)n(-c2ccccc2)n1C [Aminopyrin, reference compound] | 225 | 98 | 38 | – | – | – |
| Cn1c2ccccc2c2oc(C(=O)NCCCN3CCCCC3)cc21 [Compound No. 2, 4-methyl-furo[3,2-b]indole-2-(N-piperidinopropyl)carboxamide] | 115 | 68 | 36 | 0.82 | – | – |
| O=C(NCCCN1CCCCC1)c1cc2[nH]c3cc(Cl)ccc3c2o1 [Compound No. 5, 6-chloro-furo[3,2-b]indole-2-(N-piperidinopropyl)carboxamide] | 100 | 80 | 64.2 | 0.73 | 400 | – |
| Cn1c2cc(Cl)ccc2c2oc(C(=O)NCCCN3CCCCC3)cc21 [Compound No. 6, 6-chloro-4-methyl-furo[3,2-b]indole-2-(N-piperidinopropyl)carboxamide] | 59 | 50 | 29.5 | 1.29 | – | – |
| CCn1c2cc(Cl)ccc2c2oc(C(=O)NCCCN3CCCCC3)cc21 [Compound No. 7, 6-chloro-4-ethyl-furo[3,2-b]indole-2-(N-piperidinopropyl)carboxamide] | 31 | 41.8 | 56.4 | 1.45 | – | – |
| CC(C)n1c2cc(Cl)ccc2c2oc(C(=O)NCCCN3CCCCC3)cc21 [Compound No. 8, 6-chloro-4-isopropyl-furo[3,2-b]indole-2-(N-piperidinopropyl)carboxamide] | 100 | 87 | 68.4 | 0.56 | – | – |
| Cn1c2cc(C(F)(F)F)ccc2c2oc(C(=O)NCCCN3CCCCC3)cc21 [Compound No. 10, 4-methyl-6-trifluoromethyl-furo[3,2-b]indole-2-(N-piperidinopropyl)carboxamide] | 49 | 38 | 32.5 | – | > 200 | 45.4 |
| CCn1c2cc(C(F)(F)F)ccc2c2oc(C(=O)NCCCN3CCCCC3)cc21 [Compound No. 11, 4-ethyl-6-trifluoromethyl-furo[3,2-b]indole-2-(N-piperidinopropyl)carboxamide] | 50 | 41 | 30 | 1.29 | – | – |
| CC(C)n1c2cc(C(F)(F)F)ccc2c2oc(C(=O)NCCCN3CCCCC3)cc21 [Compound No. 12, 4-isopropyl-6-trifluoromethyl-furo[3,2-b]indole-2-(N-piperidinopropyl)carbonxamide] | 300 | 93 | 68.3 | 2.19 | 351 | – |
| CCn1c2cc(F)ccc2c2oc(C(=O)NCCCN3CCCCC3)cc21 [Compound No. 13, 4-ethyl-6-fluoro-furo[3,2-b]indole-2-(N-piperidinopropyl)carboxamide] | 79.9 | 90.8 | 87.5 | 0.84 | – | – |
| CCCn1c2cc(OC)ccc2c2oc(C(=O)NCCCN3CCCCC3)cc21 [Compound No. 14, 6-methoxy-4-n-propyl-furo[3,2-b]-indole-2-(N-piperidinopropyl)carboxamide] | > 100 | 84.6 | 81.2 | 0.92 | – | – |
| CCCn1c2cc(C)ccc2c2oc(C(=O)NCCCN3CCCCC3)cc21 [Compound No. 15, 6-methyl-4-n-propyl-furo[3,2-b]indole-2-(N-piperidinopropyl)carboxamide] | 87.6 | 79.2 | 91 | 0.78 | – | – |
| CC(C)Cc1ccc(C(C)C(=O)O)cc1 (centres unmarked) [Ibuprofen, reference compound] | > 300 | 324 | 195 | – | 278 | 66.5 |
| CCCCC1C(=O)N(c2ccccc2)N(c2ccccc2)C1=O [Phenylbutazone, reference compound] | > 300 | > 300 | 123 | – | 145 | 110 |
| O=C(Cn1c(=O)sc2ccc(Cl)cc21)N1CCN(CCO)CC1 [Tiaramide HCl, reference compound] | 93 | 110 | 66 | – | > 200 | 84.3 |
